How the values were obtained:
HNO 97 cell line = assay: Growth inhibition of human HNO 97 cell line assessed as reduction in cell viability at 100 ug/ml by SRB colorimetric assay relative to control; format: functional; details: read-out: GI
MDA-MB-231 = assay: Growth inhibition of human MDA-MB-231 cells assessed as reduction in cell viability at 100 ug/ml by SRB colorimetric assay relative to control; format: functional; details: read-out: GI
HepG2 = assay: Growth inhibition of human HepG2 cells assessed as reduction in cell viability at 100 ug/ml by SRB colorimetric assay relative to control; format: functional; details: read-out: GI
Huh-7 = assay: Growth inhibition of human Huh-7 cells assessed as reduction in cell viability at 100 ug/ml by SRB colorimetric assay relative to control; format: functional; details: read-out: GI
PC-3 = assay: Growth inhibition of human PC-3 cells assessed as reduction in cell viability at 100 ug/ml by SRB colorimetric assay relative to control; format: functional; details: read-out: GI
A-375 = assay: Growth inhibition of human A-375 cells assessed as reduction in cell viability at 100 ug/ml by SRB colorimetric assay relative to control; format: functional; details: read-out: GI
MCF7 = assay: Growth inhibition of human MCF7 cells assessed as reduction in cell viability at 100 ug/ml by SRB colorimetric assay relative to control; format: functional; details: read-out: GI
HCT-116 = assay: Growth inhibition of human HCT-116 cells assessed as reduction in cell viability at 100 ug/ml by SRB colorimetric assay relative to control; format: functional; details: read-out: GI
Caco-2 = assay: Growth inhibition of human Caco-2 cells assessed as reduction in cell viability at 100 ug/ml by SRB colorimetric assay relative to control; format: functional; details: read-out: GI
MG-63 = assay: Growth inhibition of human MG-63 cells assessed as reduction in cell viability at 100 ug/ml by SRB colorimetric assay relative to control; format: functional; details: read-out: GI
NCI-H460 = assay: Growth inhibition of human NCI-H460 cells assessed as reduction in cell viability at 100 ug/ml by SRB colorimetric assay relative to control; format: functional; details: read-out: GI
A549 = assay: Growth inhibition of human A549 cells assessed as reduction in cell viability at 100 ug/ml by SRB colorimetric assay relative to control; format: functional; details: read-out: GI
BT-474 = assay: Growth inhibition of human BT-474 cells assessed as reduction in cell viability at 100 ug/ml by SRB colorimetric assay relative to control; format: functional; details: read-out: GI
[1] = Growth inhibition of human Oral epithelial cell assessed as reduction in cell viability at 100 ug/ml by SRB colorimetric assay relative to control; format: toxicity, cell-based; details: oral epithelial cells, at 100 µg/mL, read-out: GI
[2] = target: DNA topoisomerase 2-beta (Homo sapiens) (UniProt Q02880); assay: Inhibition of human DNA topoisomerase 2-beta by ELISA method relative to control; details: concentration not given here
DNA topoisomerase 2-beta (Homo sapiens), sequence (Q02880 whole entry): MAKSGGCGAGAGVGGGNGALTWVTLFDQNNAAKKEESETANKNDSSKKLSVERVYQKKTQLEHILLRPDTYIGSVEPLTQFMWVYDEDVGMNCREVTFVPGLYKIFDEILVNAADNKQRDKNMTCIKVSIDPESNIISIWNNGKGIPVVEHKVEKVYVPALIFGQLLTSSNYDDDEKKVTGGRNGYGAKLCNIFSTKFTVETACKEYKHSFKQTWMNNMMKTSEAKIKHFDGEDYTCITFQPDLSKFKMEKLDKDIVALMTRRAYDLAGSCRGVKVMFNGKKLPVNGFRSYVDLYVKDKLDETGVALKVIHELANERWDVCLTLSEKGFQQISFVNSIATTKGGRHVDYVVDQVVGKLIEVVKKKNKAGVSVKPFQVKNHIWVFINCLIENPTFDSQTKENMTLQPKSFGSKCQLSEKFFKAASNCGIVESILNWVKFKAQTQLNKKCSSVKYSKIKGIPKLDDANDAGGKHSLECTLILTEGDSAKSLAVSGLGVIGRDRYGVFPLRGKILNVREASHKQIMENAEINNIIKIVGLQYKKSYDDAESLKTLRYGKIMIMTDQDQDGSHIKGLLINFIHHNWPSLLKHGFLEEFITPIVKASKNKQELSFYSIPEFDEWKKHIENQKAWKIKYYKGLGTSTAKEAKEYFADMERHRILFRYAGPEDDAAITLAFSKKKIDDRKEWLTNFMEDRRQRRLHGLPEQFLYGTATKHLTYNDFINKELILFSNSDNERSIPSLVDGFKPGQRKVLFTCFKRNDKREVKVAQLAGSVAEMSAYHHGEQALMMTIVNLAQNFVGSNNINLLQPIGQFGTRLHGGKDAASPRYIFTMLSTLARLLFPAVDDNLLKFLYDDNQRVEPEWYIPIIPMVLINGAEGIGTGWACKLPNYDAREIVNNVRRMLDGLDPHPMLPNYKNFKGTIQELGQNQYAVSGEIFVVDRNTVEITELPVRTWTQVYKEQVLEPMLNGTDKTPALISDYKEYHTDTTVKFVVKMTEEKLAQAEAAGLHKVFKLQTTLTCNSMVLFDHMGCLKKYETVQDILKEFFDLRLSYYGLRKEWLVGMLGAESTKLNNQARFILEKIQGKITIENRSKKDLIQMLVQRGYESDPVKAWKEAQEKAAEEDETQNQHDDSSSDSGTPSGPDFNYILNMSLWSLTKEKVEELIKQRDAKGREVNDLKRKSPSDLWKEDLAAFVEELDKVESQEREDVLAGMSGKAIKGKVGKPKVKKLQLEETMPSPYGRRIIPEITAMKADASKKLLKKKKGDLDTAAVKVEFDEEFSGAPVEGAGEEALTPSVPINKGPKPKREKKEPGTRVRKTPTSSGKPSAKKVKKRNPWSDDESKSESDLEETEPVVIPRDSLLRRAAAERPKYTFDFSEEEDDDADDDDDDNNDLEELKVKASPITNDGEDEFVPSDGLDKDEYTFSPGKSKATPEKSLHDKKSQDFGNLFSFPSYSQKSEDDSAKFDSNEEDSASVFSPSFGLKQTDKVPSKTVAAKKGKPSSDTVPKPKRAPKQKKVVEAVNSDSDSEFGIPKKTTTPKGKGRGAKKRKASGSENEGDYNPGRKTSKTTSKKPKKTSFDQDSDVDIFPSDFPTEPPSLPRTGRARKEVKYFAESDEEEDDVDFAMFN

SMILES	inhibition of growth at 100 µg/mL (HNO 97 cell line) [%]	inhibition of growth at 100 µg/mL (MDA-MB-231) [%]	inhibition of growth at 100 µg/mL (HepG2) [%]	inhibition of growth at 100 µg/mL (Huh-7) [%]	inhibition of growth at 100 µg/mL (PC-3) [%]	inhibition of growth at 100 µg/mL (A-375) [%]	inhibition of growth at 100 µg/mL (MCF7) [%]	inhibition of growth at 100 µg/mL (HCT-116) [%]	inhibition of growth at 100 µg/mL (Caco-2) [%]	inhibition of growth at 100 µg/mL (MG-63) [%]	inhibition of growth at 100 µg/mL (NCI-H460) [%]	inhibition of growth at 100 µg/mL (A549) [%]	inhibition of growth at 100 µg/mL (BT-474) [%]	inhibition at 100 ug/ml [1] [%]	inhibition [2] [%]
Cc1ccc(C2NC(N)=Nc3nc4ccccc4n32)o1 (configuration not stated)	57.5	27.4	61.5	50	55.2	58.5	51.6	60.9	56.2	50.6	61.6	56.2	13.2	59.7	
CC(C)c1ccc(C2N=C(N)Nc3nc4ccccc4n32)cc1 (configuration not stated)	75.7	78.6	63.7	54.7	71.7	58.1	55.4	55.6	59.2	58	65.6	49	61.7	7.69	77.5
COc1cc(C2NC(N)=Nc3nc4ccccc4n32)cc(OC)c1OC (configuration not stated)	82.2	79.4	73.9	70.1	60	61.8	72	63.6	69	59.4	69.6	67.5	69.9	32.7	
CN(C)c1ccc(C2NC(N)=Nc3nc4ccccc4n32)cc1 (configuration not stated)	80.8	61	78.8	70	57.5	68.5	63.2	64.1	64	58	70.9	67.7	60.1	14.2	
NC1=Nc2nc3ccccc3n2C(c2ccc3ccccc3c2)N1 (configuration not stated)	57.3	66.6	45	54.6	54.8	44.1	48.8	50.2	61	58.6	65	56.7	55.3	55.7	
NC1=NC(c2ccccc2)n2c(nc3ccccc32)N1 (configuration not stated)	78.1	68.2	66.6	68.1	72.7	63.4	60.2	61.1	61.7	56	65.3	59.1	51.4	24.4	
NC1=Nc2nc3ccccc3n2C(c2ccc([N+](=O)[O-])cc2)N1 (configuration not stated)	70.4	74.6	74.3	56.9	61.2	58.6	61.2	61.3	65.9	53.4	74.7	65.6	60.2	40.3	
NC1=NC(c2cccnc2)n2c(nc3ccccc32)N1 (configuration not stated)	64.8	30.5	67.8	57.2	52.2	56	60.7	65.2	53.7	42.4	58.1	55.6	0.93	52.7	
COc1cc(C2NC(N)=Nc3nc4ccccc4n32)ccc1OCc1ccccc1 (configuration not stated)	63.2	51.7	41.3	26.9	44.6	45.1	48.9	39	40.1	13.1	30.4	30.5	1	21	
NC1=Nc2nc3ccccc3n2C(c2cccc(Cl)c2Cl)N1 (configuration not stated)	78.6	75.1	72.5	67	71.5	68.7	63.6	59.6	61.1	63.2	73.1	67.8	60.4	38.4	
NC1=Nc2nc3ccccc3n2C(c2c[nH]c3ccccc23)N1 (configuration not stated)	75.3	34.3	69.2	65.3	54.2	69.2	56.5	64.3	61.7	56.2	63.5	58.8	34.4	51.3	
NC1=Nc2nc3ccccc3n2C(c2cccc3ccccc23)N1 (configuration not stated)	61.1	76.2	59	58.7	59	52.8	53.7	55.7	59.9	58	61.1	54.4	61.4	45.9	
NC1=Nc2nc3ccccc3n2C(c2cccs2)N1 (configuration not stated)	71.8	38.7	64.9	65	48	56.4	56.2	64.4	62.9	49.9	58.8	61.4	5.76	59.6	
COc1ccc(OC)c(C2N=C(N)Nc3nc4ccccc4n32)c1 (configuration not stated)	76.6	64.9	63.6	54.8	46	52.1	54.4	49.3	52.5	46.8	63.2	54.9	46.3	10.2	
